Key:
leukemia cells = experiment: Apoptosis of leukemia cells by Annexin V/PI staining; format: cell-based, human; conditions: 0 - 400 nM, 24 hours; PBMCs from patients with CLL (n = 6)
Description: Cell viability and apoptosis were evaluated by double-staining with the mitochondrial inner transmembrane potential (ΔΨm)-sensitive dye DiOC6(3) (3,3'-dihexyloxacarbocyanine iodide; Sigma-Aldrich) and the exclusion dye propidium iodide (PI; Immunostep), allowing identification of apoptotic [DiOC6(3)^low PI^-] and dead [PI^+] cells as per Proc. Natl. Acad. Sci. U.S.A. (2014) 111(8):3020-3025 and Methods Mol. Biol. (2016) 1419:1-16. Briefly, PBMCs were resuspended in culture medium containing 20 nM DiOC6(3) and incubated for 30 minutes at 37 °C. Then, PI (1 µg/mL) was added and cells were further incubated for 10 minutes at room temperature (RT). Cells were analyzed by flow cytometry considering DiOC6(3)^+PI^- cells as viable. In some experiments, apoptosis was evaluated by staining with Annexin V/PI. […]
(§1) The induction of caspase-dependent apoptosis on primary CLL cells by EC-7072 was assessed by: • (i) incubating PBMCs isolated from patients with CLL (n = 6) following treatment with increasing concentrations of EC-7072 (0 - 400 nM) for 24 hours. Apoptosis of leukemia cells was evaluated by cytofluorometric assessment of Annexin V/PI staining to obtain percentages of apoptotic [Annexin V^+ PI^-] and dead [PI^+] cells (Figure 3A); • (ii) incubating PBMCs and T cells isolated from patients with CLL (n = 3) following treatment with EC-7072 (200 nM) for 24 hours. […]

histone H2AX = experiment: Phosphoflow of phosphorylated H2AX in isolated leukemia cells; format: cell-based, human; conditions: 200 nM, 12 hours; isolated leukemia cells (n = 4)
Description: Protein phosphorylation levels were evaluated by phosphoflow. Briefly, isolated leukemia cells from patients with CLL were treated with 200 nM EC-7072 or DMSO for 8 or 12 hours. In some experiments, BCR signaling was activated with goat F(ab')2 anti-IgM antibody (10 µg/mL; SouthernBiotech) for 45 minutes. Right afterwards, cells were fixed with 1.8% paraformaldehyde for 10 minutes at RT and permeabilized with 90% ice-cold methanol for 25 minutes at 4 °C. Finally, cells were incubated with specific phospho-antibodies (p-SYK, p-BTK, p-ERK1/2 and p-H2AX from Biolegend, and p-PLCγ2, p-AKT, p-p65 NF-κB and p-STAT3 from BD Bioscience) for 30 minutes at RT and mean fluorescence intensity (MFI) was analyzed by flow cytometry.
as §1

MEC-1 cells = experiment: Immunoblot of phosphorylated and total STAT3 in MEC-1 cells; format: cell-based; conditions: 200 nM, 0-, 3-, 8- and 12-hour time points; reduction of p-STAT3

CO[C@@H]([C@@H]1Cc2cc3cc(O[C@H]4C[C@@H](O[C@H]5C[C@@H](O)[C@H](O)[C@@H](C)O5)[C@H](O)[C@@H](C)O4)c(C)c(O)c3c(O)c2C(=O)[C@H]1O[C@H]1C[C@@H](O[C@H]2C[C@@H](O[C@H]3C[C@](C)(O)[C@H](O)[C@@H](C)O3)[C@@H](O)[C@@H](C)O2)[C@H](O)[C@@H](C)O1)[C@@H](O)C(C)=O [EC-7072, mithramycin SK]
apoptosis of leukemia cells (Annexin V/PI) (leukemia cells): significantly induces CLL cell apoptosis | phosphorylation of histone H2AX (histone H2AX): heightened phosphorylation | levels of p-STAT3 in MEC-1 (MEC-1 cells): further confirmed

From patent publication EP3797781A1, “USE OF EC-7072 AND SYNERGIC COMPOSITIONS THEREOF IN TREATMENT OF CHRONIC LYMPHOCYTIC LEUKEMIA” (priority 2019, dated 2021)
